Molecular target: P2X7 receptor (Homo sapiens (Human), UniProt Q99572)
Assay: P2X7 FLIPR assay: antagonism of BzATP response in 293 HEK cells stably expressing P2X7 receptor
Format: cell-based
Conditions: FLIPR fluorescence (Fluo-4), agonist BzATP, 293 HEK cells stably transfected with P2X7 receptor
Procedure, shortened: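 Antagonist IC50 derived from FLIPR Tetra Fluo-4 calcium signal evoked by BzATP. Compound pre-incubation was 30 min at room temperature on P2X7-expressing HEK293 cells, seeded 24 h before in low-serum medium and dye-loaded 30 min at 37 °C then 30 min at RT.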

P2X7 receptor, sequence (Q99572 whole entry): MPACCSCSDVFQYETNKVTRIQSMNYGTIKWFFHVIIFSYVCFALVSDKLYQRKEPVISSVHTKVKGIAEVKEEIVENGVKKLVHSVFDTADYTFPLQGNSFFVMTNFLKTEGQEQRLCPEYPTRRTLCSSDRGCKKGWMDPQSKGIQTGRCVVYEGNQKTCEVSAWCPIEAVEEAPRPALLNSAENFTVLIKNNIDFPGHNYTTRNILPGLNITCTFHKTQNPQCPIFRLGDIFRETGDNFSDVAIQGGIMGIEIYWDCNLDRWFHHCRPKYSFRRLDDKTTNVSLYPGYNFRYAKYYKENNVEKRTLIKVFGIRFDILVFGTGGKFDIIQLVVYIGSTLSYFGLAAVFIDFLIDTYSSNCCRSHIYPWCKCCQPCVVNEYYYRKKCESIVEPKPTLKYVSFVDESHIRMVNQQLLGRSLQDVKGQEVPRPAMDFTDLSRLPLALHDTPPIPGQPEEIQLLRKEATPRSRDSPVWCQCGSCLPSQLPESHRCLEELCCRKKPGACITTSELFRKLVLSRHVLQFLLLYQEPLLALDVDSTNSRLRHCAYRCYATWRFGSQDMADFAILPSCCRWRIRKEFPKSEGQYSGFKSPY

Row | SMILES | IC50
1 | Cc1cccc(C(=O)NC[C@H](c2ccc(Cl)cc2)N2CCOCC2)c1Cl [2-Chloro-N-[(S)-2-(4-chloro-phenyl)-2-morpholin-4-yl-ethyl]-3-methyl-benzamide] | 0.53 nM
2 | Cc1ncc(C(CNC(=O)c2cccc(F)c2Cl)N2CCCOCC2)cn1 (stereo not drawn) [2-chloro-3-fluoro-N-(2-(2-methylpyrimidin-5-yl)-2-(1,4-oxazepan-4-yl)ethyl)benzamide] | 330 nM
3 | Cc1ncc(C(CNC(=O)c2cccc(F)c2Cl)N2CCOCC2)cn1 (stereo not drawn) [2-chloro-3-fluoro-N-(2-(2-methylpyrimidin-5-yl)-2-morpholinoethyl)benzamide] | 1200 nM
4 | O=C(NCC(c1cnc(C(F)(F)F)nc1)N1CCOCC1)c1cccc(F)c1Cl (stereo not drawn) [2-chloro-3-fluoro-N-(2-morpholino-2-(2-(trifluoromethyl)pyrimidin-5-yl)ethyl)benzamide] | 11 nM
5 | Cc1ncc(C(CNC(=O)c2c(F)cccc2Cl)N2CCCOCC2)cn1 (stereo not drawn) [2-chloro-6-fluoro-N-(2-(2-methylpyrimidin-5-yl)-2-(1,4-oxazepan-4-yl)ethyl)benzamide] | 820 nM
6 | Cc1ncc(C(CNC(=O)c2c(F)cccc2Cl)N2CCOCC2)cn1 (stereo not drawn) [2-chloro-6-fluoro-N-(2-(2-methylpyrimidin-5-yl)-2-morpholinoethyl)benzamide] | 590 nM
7 | Cc1ncc(C(CNC(=O)c2ccccc2Cl)N2CCCOCC2)cn1 (stereo not drawn) [2-chloro-N-(2-(2-methylpyrimidin-5-yl)-2-(1,4-oxazepan-4-yl)ethyl)benzamide] | 680 nM
8 | O=C(NCC(c1cnc(C(F)(F)F)nc1)N1CCC(F)(F)CC1)c1ccccc1Cl (stereo not drawn) [2-chloro-N-(2-(4,4-difluoropiperidin-1-yl)-2-(2-(trifluoromethyl)pyrimidin-5-yl)ethyl)benzamide] | 2.8 nM
9 | O=C(NCC(c1ccc(F)nc1)N1CCC(F)(F)CC1)c1ccccc1Cl (stereo not drawn) [2-chloro-N-[2-(4,4-difluoro-1-piperidyl)-2-(6-fluoro-3-pyridyl)ethyl]benzamide] | 4 nM
10 | CC1(C)CCN(C(CNC(=O)c2cccc(F)c2Cl)c2cnc(C(F)(F)F)nc2)CC1 (stereo not drawn) [2-chloro-N-[2-(4,4-dimethyl-1-piperidyl)-2-[2-(trifluoromethyl)pyrimidin-5-yl]ethyl]-3-fluoro-benzamide] | 3600 nM
11 | Cc1ncc(C(CNC(=O)c2cccc(Cl)c2Cl)N2CC3CCC2C3)cn1 (stereo not drawn) [N-(2-(2-azabicyclo[2.2.1]heptan-2-yl)-2-(2-methylpyrimidin-5-yl)ethyl)-2,3-dichlorobenzamide] | 3200 nM
12 | O=C(NCC(c1ccc(Cl)cc1)N1CCC(F)(F)CC1)c1cccc(Cl)c1Cl (stereo not drawn) [N-[2-(4-Chloro-phenyl)-2-(4,4-difluoro-piperidin-1-yl)-ethyl]-2,3-dichloro-benzamide] | 46 nM
13 | Cc1cccc(C(=O)NCC(c2ccc(Cl)cc2)N2CCC(F)(F)CC2)c1C (stereo not drawn) [N-[2-(4-Chloro-phenyl)-2-(4,4-difluoro-piperidin-1-yl)-ethyl]-2,3-dimethyl-benzamide] | 3.6 nM
14 | Cc1ccccc1C(=O)NCC(c1ccc(Cl)cc1)N1CCC(F)(F)CC1 (stereo not drawn) [N-[2-(4-Chloro-phenyl)-2-(4,4-difluoro-piperidin-1-yl)-ethyl]-2-methyl-benzamide] | 2 nM
15 | Cc1cccc(C(=O)NCC(c2ccc(F)cc2)N2CCOCC2)c1C (stereo not drawn) [N-[2-(4-Fluoro-phenyl)-2-morpholin-4-yl-ethyl]-2,3-dimethyl-benzamide] | 20 nM
16 | Cc1ccccc1C(=O)NCC(c1ccc(F)cc1)N1CCOCC1 (stereo not drawn) [N-[2-(4-Fluoro-phenyl)-2-morpholin-4-yl-ethyl]-2-methyl-benzamide] | 110 nM
17 | COc1ccc(C(CNC(=O)c2cccc(C)c2C)N2CCOCC2)cc1 (stereo not drawn) [N-[2-(4-Methoxy-phenyl)-2-morpholin-4-yl-ethyl]-2,3-dimethyl-benzamide] | 47 nM
18 | COc1ccc(C(CNC(=O)c2ccccc2C)N2CCOCC2)cc1 (stereo not drawn) [N-[2-(4-Methoxy-phenyl)-2-morpholin-4-yl-ethyl]-2-methyl-benzamide] | 500 nM
19 | COc1ccc(C(CNC(=O)c2cccc(C)c2C)N2CCCCC2)cc1 (stereo not drawn) [N-[2-(4-Methoxy-phenyl)-2-piperidin-1-yl-ethyl]-2,3-dimethyl-benzamide] | 420 nM
20 | COc1ccc(C(CNC(=O)c2ccccc2C)N2CCCCC2)cc1 (stereo not drawn) [N-[2-(4-Methoxy-phenyl)-2-piperidin-1-yl-ethyl]-2-methyl-benzamide] | 3900 nM
21 | Cc1ccccc1C(=O)NC[C@H](c1ccc(Cl)cc1)N1CCOCC1 [N-[(S)-2-(4-Chloro-phenyl)-2-morpholin-4-yl-ethyl]-2-methyl-benzamide] | 9.3 nM

Reference: patent publication US9415055B2, “Cyclic amines” (H. Lundbeck A/S, priority 2012, dated 2016)
